Measured values from PubChem BioAssay AID588671 (Sanford-Burnham Center for Chemical Genomics, 2011).
Calls of active or inactive are those of the source.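 How the source made its calls: active means IC50 at or below 20 µM; inactive means the rest.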

Molecular target: glucose-6-phosphate dehydrogenase-6-phosphogluconolactonase (PfGluPho), Plasmodium falciparum 3D7
Assay: inhibition of P. falciparum G6PD activity – biochemical, fluorescence intensity, set 2, SAR follow-up (AID 588671)
Settings: recombinant PfGluPho, diaphorase-resazurin NADPH fluorescence

Row | IC50 | Structure (SMILES)
1 | inactive | O=C(NCCN1CCCC1)c1ccc2c(c1)NC(=O)c1ccccc1O2
2 | 1.19 µM | CCN1CCC[C@@H]1CNC(=O)c1ccc2c(c1)NC(=O)/C(=C/c1ccccc1F)S2
3 | 4.28 µM | CCN1CCCC1CNC(=O)c1ccc2c(c1)NC(=O)/C(=C/c1cccc3ccccc13)S2 (configuration not stated)
4 | 5.93 µM | CCN1CCCC1CNC(=O)c1ccc2c(c1)NC(=O)/C(=C/c1ccccc1C)S2 (configuration not stated)
5 | > 80 µM (inactive) | CCN(CC)CCNC(=O)c1ccc2c(c1)NC(=O)CO2
6 | inactive | CN1CCCC1CCNC(=O)c1ccc2c(c1)NC(=O)/C(=C/c1ccccc1F)S2 (configuration not stated)
7 | > 80 µM (inactive) | O=C1COc2ccc(C(=O)NCCN3CCCCC3)cc2N1
8 | inactive | O=C(NCCN1CCCCC1)c1ccc2c(c1)NC(=O)c1ccccc1O2
9 | > 80 µM (inactive) | CN(C)CCNC(=O)c1ccc2c(c1)NC(=O)CO2
10 | > 80 µM (inactive) | CN1CCN(C(=O)c2ccc3c(c2)NC(=O)/C(=C/c2ccccc2Cl)S3)CC1
11 | 9.89 µM | CCN1CCCC1CNC(=O)c1ccc2c(c1)NC(=O)c1ccccc1S2 (configuration not stated)
12 | 4.79 µM | CCN1CCC[C@H]1CNC(=O)c1ccc2c(c1)NC(=O)/C(=C/c1ccccc1F)S2
13 | > 80 µM (inactive) | CN(C)CCNC(=O)c1ccc2c(c1)NC(=O)c1ccccc1O2
14 | inactive | CCN1CCCC1CNC(=O)c1ccc2c(c1)NC(=O)c1ccccc1O2 (configuration not stated)
15 | inactive | CCN(CC)CCNC(=O)c1ccc2c(c1)NC(=O)c1ccccc1O2
16 | 1.71 µM | CCN1CCCC1CNC(=O)c1ccc2c(c1)NC(=O)/C(=C/c1ccccc1F)S2 (configuration not stated)
17 | > 80 µM (inactive) | O=C(NCCN1CCOCC1)c1ccc2c(c1)NC(=O)c1ccccc1O2
18 | > 80 µM (inactive) | CCN1CCCC1CNC(=O)c1ccc2c(c1)NC(=O)CS2 (configuration not stated)
19 | > 80 µM (inactive) | O=C1COc2ccc(C(=O)NCCN3CCOCC3)cc2N1
20 | inactive | O=C1Nc2cc(C(=O)NCCN3CCCCC3)ccc2S/C1=C\c1ccccc1F
21 | 9.79 µM | CCN1CCCC1CNC(=O)c1ccc2c(c1)NC(=O)/C(=C/c1ccccc1OC)S2 (configuration not stated)
22 | > 80 µM (inactive) | O=C1COc2ccc(C(=O)NCCN3CCCC3)cc2N1
23 | inactive | O=C(NCCN1CCCC1)c1ccc2c(c1)NC(=O)c1ccccc1S2
24 | > 80 µM (inactive) | O=C1Nc2cc(C(=O)NCCN3CCOCC3)ccc2S/C1=C\c1ccccc1F
25 | > 80 µM (inactive) | CCN1CCCC1CNC(=O)c1ccc2c(c1)NC(=O)CO2 (configuration not stated)
26 | > 80 µM (inactive) | O=C1Nc2cc(C(=O)NCc3ccccc3)ccc2S/C1=C\c1ccccc1F
27 | inactive | CCN(CC)CCNC(=O)c1ccc2c(c1)NC(=O)c1ccccc1S2
